Experimental data published in US20160310607A1, “CELL TRANSPORT” (CUPID PEPTIDE COMPANY LIMITED, priority 2013, published 2016).
Entries after “also recorded” stand apart in the source; their conditions may differ. No end group written: not given here.

How the values were obtained:
[1] = test system: Dictyostelium discoideum amoeba cells; experiment: Permeation of FITC-labelled peptides into cultured Dictyostelium cells (fluorescence microscopy); type: cell-based; details: FITC-labelled peptide, 10 micromolar, 1 hour
Experimental: Peptides were labelled with Fluorescein isothiocyanate (FITC) using a FITC labeling kit as per instructions (Pierce, UK). When added to cell cultures the labeled peptides were visualized using a fluorescent microscope by exciting the FITC with a 488 nm spectral line, argon-ion laser (Excitation wavelength of 494 nm and an Emission wavelength of 518 nm).
AX2 wild type Dictyostelium cells were grown on SM agar plates seeded with Aerobacter aerogenes bacteria (also known as Klebsiella aerogenes) as a food source.
Cupid A ([…]) and Cupid B ([…]) were chemically synthesized labelled with FITC at the amino terminal. The peptides were added to cultured eukaryotic cells of Dictyostelium discoideum amoeba for varying amounts of time up to 2 hours. Cells were then washed and prepared for examination under a fluorescent microscope (FIG. 1). The time courses of permeation were compared to the class 3 CPP, the Antennapedia peptide, pANT which was also labelled with FITC in chemical synthesis (FIG. 2).

[2] = test system: Dictyostelium cAMP-dependent Protein Kinase (DdPKA); experiment: PKA-dependent aggregation of starved Dictyostelium cultures; type: cell-based, Dictyostelium discoideum; details: 10 micromolar peptide
Experimental: FIG. 6. Cupid can transport small molecule cargo into cells. Starved Dictyostelium cultures were treated with no peptide (A), cupid B peptide (B), PKI peptide (C) and Cupid B-PKI peptide (D) and analysed for aggregation.
Upon starvation Dictyostelium initiates a developmental program leading to the aggregation of free-living amoebae. Genetic research has uncovered the crucial role that cyclic adenosine monophosphate (cAMP) plays in orchestrating as an extracellular chemoattractant in the initial aggregation process through Dictyostelium cAMP-dependent Protein Kinase (DdPKA). DdPKA can be inhibited by PKI, a 20 amino acid peptide sequence derived from an inhibitor of PKA, by PKI binding directly to the catalytic unit of PKA.
By creating a Cupid B-PKI fusion protein we aimed to establish that it prevents starving Dictyostelium cells from aggregating in vivo.

Sequence: HHHHHHRRVQIWFQNKRAKVKRIDTTYADRASGRTGRRNAIHD (also: FITC label, site not given here) [Cupid B-PKI, Cupid B-PKI fusion protein with 6x Histidine, made recombinantly in E. coli; FITC-labelled for microscopy]
- cell permeation (fluorescence microscopy) [1]: cell permeable
- effect on aggregation of starved Dictyostelium cultures [2]: completely attenuating
- effect on aggregation of starved Dictyostelium cultures ([2]; listed as Cupid-PKI): failed to aggregate

Sequence: RRVQIWFQNKRAKVKR [Cupid B, cell penetrating peptide from the genome of Dictyostelium discoideum]
- effect on aggregation of starved Dictyostelium cultures [2]: neither the Cupid B peptide nor the PKI peptide alone have any effect on aggregation; also recorded: cells aggregated into tight masses

Sequence: TTYADRASGRTGRRNAND [PKI, reference compound]
- effect on aggregation of starved Dictyostelium cultures [2]: neither the Cupid B peptide nor the PKI peptide alone have any effect on aggregation; also recorded: cells aggregated into tight masses
